Experimental data published in patent US5336672A, “Increasing egg production in poultry” (Board of Supervisors of Louisiana State University and …, priority 1992, dated 1994).
Read-outs that look alike come from different tables or passages of the source.

Tests used:
[1] = tested on: laying hen; settings: Jensen et al. 1978; cited from earlier work
[2] = tested on: turkey poults; settings: Steele et al. 1979; Rosebrough et al. 1981; may depend on Cr (III) in an organic form; cited from earlier work
[3] = tested on: turkey breast tissue; settings: supplemental Cr; Anderson et al. 1989; cited from earlier work
[4] = tested on: adult men; settings: Cr supplementation; cited from earlier work
[5] = tested on: rabbits; settings: cited from earlier work
[6] = tested on: laying hens; settings: dietary; Jensen et al. 1980; cited from earlier work
[7] = tested on: rats; settings: 200 mg/kg picolinic acid in diet; cited from earlier work
[8] = tested on: swine; settings: Hill et al. 1986; cited from earlier work
[9] = tested on: laying hens; experiment: Egg production, Example 1 (28-day feeding trial, hens 32-36 weeks of age); format: in vivo, Hyline 36 commercial-type laying hens; settings: for Egg Production: 28 days, mean of 10 replicates, SEM 2.7, chromium cubic effect P < .03
From the text: (§1) Hyline 36 commercial-type laying hens were taken from the Louisiana State University Agricultural Center Poultry Unit. The hens were 32-36 weeks of age during the 28 days of the trial. A randomized complete block design was used, and the hens were blocked on location in the barn. Hens were penned individually in cages (0.30×0.41 m) in an open front building. Each of the six treatments described below was replicated ten times, with one hen per replicate. The hens were fed a corn-soybean meal laying hen basal diet for one week. The composition of the diet is set forth in Table 1, and was formulated to meet or exceed the requirements for all nutrients as stated in "Nutrient Requirements of Poultry," National Research Council (1984). The hens were then randomly allotted to a treatment, and were fed the experimental diets during a 28-day trial. The following treatments were used: (1) Corn-soybean meal basal (B), (2) B+50 ppb Cr, (3) B+100 ppb Cr, (4) B+200 ppb Cr, (5) B+400 ppb Cr, and (6) B+800 ppb Cr. Cromium was administered as chromium picolinate. Treatment diets and water were provided on an ad libitum basis.
(§2) Egg production was recorded daily, and eggs were collected on Days 2, 9, 16, and 23 for determination of specific gravity [weight in air/(weight in air-weight in water)] and Haugh units. (Haugh unit=100 Log10 (Albumen height (in mm)+(7.57-(1.7) (Egg mass in grams)^037))). Eggs were collected on Days 0, 7, 14, 21, and 28 for CH analysis. To determine yolk CH, eggs were hard-cooked by immersion in boiling water for 5 min. Yolks were removed and weighed. The entire yolk was blended with a volume of isopropyl alcohol proportional to the yolk weight (10 ml/g of yolk). The cholesterol content of this extract (mg per g wet weight) was determined by an automated procedure based on the Lieberman-Burchard method. One egg was collected on Day 22 for determination of percentage of egg fat using the acid hydrolysis method, and one egg was collected on Day 24 for determination of percentage of egg crude protein by the Kjeldahl N method.
(§3) Data were analyzed by analysis of variance. Linear, quadratic, and cubic contrasts were used to evaluate the treatment effects. Egg production, specific gravity, Haugh units, and CH were measured over time and analyzed by split-plot analyses using hen(trt*rep) as the error term in the model.

[10] = tested on: laying hens; experiment: Haugh units of eggs, Example 1; format: in vivo, Hyline 36 commercial-type laying hens; settings: for Haugh units: mean of eggs of Days 2, 9, 16, 23, SEM 1.8
From the text: as §1, §2, §3

[11] = tested on: laying hens; experiment: Specific gravity of eggs, Example 1; format: in vivo, Hyline 36 commercial-type laying hens; settings: for Specific gravity: mean of eggs of Days 2, 9, 16, 23, SEM .001
From the text: as §1, §2, §3

[12] = tested on: laying hens; experiment: Percentage of egg fat (acid hydrolysis method), Example 1; format: in vivo, Hyline 36 commercial-type laying hens; settings: for Egg fat: egg of Day 22, SEM .2, chromium quadratic effect P < .10; for Effect on percentage of egg fat: Cr quadratic, P<0.1
From the text: as §1, §2, §3

[13] = tested on: laying hens; experiment: Percentage of egg crude protein (Kjeldahl N method), Example 1; format: in vivo, Hyline 36 commercial-type laying hens; settings: for Egg Protein: egg of Day 24, SEM .2, chromium quadratic effect P < .02
From the text: as §1, §2, §3

[14] = tested on: laying hens; experiment: Egg yolk cholesterol (Lieberman-Burchard method), Example 1; format: in vivo, Hyline 36 commercial-type laying hens; settings: for Egg CH (cholesterol): mean of eggs of Days 0, 7, 14, 21, 28, SEM .2
From the text: as §1, §2, §3

[15] = tested on: laying hens; experiment: Egg production, Example 2 (eight-week trial, hens 28-36 weeks of age); format: in vivo, Hyline 36 commercial-type laying hens; settings: for Egg Production: eight weeks, SEM 2.7
From the text: as §1, §2, §3
(§4) The procedures described in Example 1 were followed, except as noted. The trial lasted eight weeks, and the hens were 28-36 weeks of age during the eight weeks of the trial. The treatments used were (1) Basal (B), (2) B+100 ppb Cr, (3) B+200 ppb Cr, (4) B+300 ppb Cr, and (5) B+400 ppb Cr. Only egg production is reported.

[16] = tested on: laying hens; experiment: Egg production, Example 3 (eight-week trial, hens 48-56 weeks of age); format: in vivo, Hyline 36 commercial-type laying hens; settings: for Egg Production: eight weeks, SEM 4.3
From the text: as §1, §2, §3, §4
The procedures of Example 2 were followed, except that the hens were 48-56 weeks of age during the eight weeks of the trial.

[17] = hens receiving 100 and 200 ppb Cr
[18] = overall, 100-400 ppb Cr, P>0.10

[Cr] [Cr, chromium]
Biological activity in the laying hen [1]: biologically active | Growth rate of turkey poults [2]: improved | Turkey breast tissue [3]: small increase | HDL cholesterol [4]: increases | Serum triglycerides [4]: decreases | Cholesterol (CH) accumulation [5]: decreased | Removal rate of CH already deposited in the aorta [5]: increased

O.O.O.O.O.O.[Cl][Cr]([Cl])[Cl] [CrCl3.6H2 O]
Effect on egg production [6]: no positive effect

O=C(O)c1ccccn1 [picolinic acid, pyridine-2-carboxylic acid]
Growth rates in rats [7]: greater growth rates | Growth rates [8]: faster growth rates | Zinc absorption [8]: did not aid zinc absorption

chromium picolinate
Egg Production ([9]; B + 50 ppb Cr in diet): 79.3% | Egg Production ([9]; B + 100 ppb Cr in diet): 81.1% | Egg Production ([9]; B + 200 ppb Cr in diet): 83.2% | Egg Production ([9]; B + 400 ppb Cr in diet): 76.1% | Egg Production ([9]; B + 800 ppb Cr in diet): 77.7% | Effect on egg production ([9]; at 400 and 800 ppb Cr, Cr cubic, P<0.03): decreased | Optimum dosage of CrPic for egg production ([9]; in the diet, from the experiments of Examples 1-3): 100-200 ppb Cr | Effect on egg production ([9]; supplementing the diet with CrPic, summary statement): incrementally increased in some circumstances | Effect on egg production ([9]; through 200 ppb Cr, Cr cubic, P<0.03): increased | Haugh units ([10]; B + 50 ppb Cr in diet): 82.6 | Haugh units ([10]; B + 100 ppb Cr in diet): 84.6 | Haugh units ([10]; B + 200 ppb Cr in diet): 82.0 | Haugh units ([10]; B + 400 ppb Cr in diet): 85.0 | Haugh units ([10]; B + 800 ppb Cr in diet): 79.7 | Effect on Haugh units ([10]; P>0.1): not affected | Specific gravity ([11]; B + 50 ppb Cr in diet): 1.085 | Specific gravity ([11]; B + 100 ppb Cr in diet): 1.084 | Specific gravity ([11]; B + 200 ppb Cr in diet): 1.084 | Specific gravity ([11]; B + 400 ppb Cr in diet): 1.084 | Specific gravity ([11]; B + 800 ppb Cr in diet): 1.085 | Effect on specific gravity ([11]; P>0.1): not affected | Egg fat ([12]; B + 50 ppb Cr in diet): 10.2% | Egg fat ([12]; B + 100 ppb Cr in diet): 10.6% | Egg fat ([12]; B + 200 ppb Cr in diet): 10.8% | Egg fat ([12]; B + 400 ppb Cr in diet): 10.0% | Egg fat ([12]; B + 800 ppb Cr in diet): 9.9% | Effect on percentage of egg fat ([12]; hens receiving 50, 400, and 800 ppb Cr): lower | Effect on percentage of egg fat [12, 17]: higher | Egg Protein ([13]; B + 50 ppb Cr in diet): 12.2% | Egg Protein ([13]; B + 100 ppb Cr in diet): 12.2% | Egg Protein ([13]; B + 200 ppb Cr in diet): 12.2% | Egg Protein ([13]; B + 400 ppb Cr in diet): 12.6% | Egg Protein ([13]; B + 800 ppb Cr in diet): 12.3% | Effect on percentage of egg crude protein ([13]; CrPic supplementation to the diet, Cr quadratic, P<0.02): reduced | Egg CH (cholesterol) ([14]; B + 50 ppb Cr in diet): 12.1 mg/g yolk | Egg CH (cholesterol) ([14]; B + 100 ppb Cr in diet): 11.7 mg/g yolk | Egg CH (cholesterol) ([14]; B + 200 ppb Cr in diet): 11.9 mg/g yolk | Egg CH (cholesterol) ([14]; B + 400 ppb Cr in diet): 12.1 mg/g yolk | Egg CH (cholesterol) ([14]; B + 800 ppb Cr in diet): 11.9 mg/g yolk | Effect on egg CH ([14]; CrPic supplementation overall, P>0.1): not affected | Effect on egg CH by Day 28 ([14]; by Day 28 of the trial, Cr quadratic, P<0.05): reduced | Effect on egg CH [14, 17]: tended to be lower | Egg Production ([15]; B + 100 ppb Cr in diet): 85.2% | Egg Production ([15]; B + 200 ppb Cr in diet): 82.3% | Egg Production ([15]; B + 300 ppb Cr in diet): 84.5% | Egg Production ([15]; B + 400 ppb Cr in diet): 81.6% | Effect on egg production ([15]; at 100 ppb Cr): numerical increase in egg production | Effect on egg production [15, 18]: not observed to affect egg production | Egg Production ([16]; B + 100 ppb Cr in diet): 83.0% | Egg Production ([16]; B + 200 ppb Cr in diet): 82.1% | Egg Production ([16]; B + 300 ppb Cr in diet): 74.8% | Egg Production ([16]; B + 400 ppb Cr in diet): 77.1% | Effect on egg production ([16]; at 100 ppb Cr): numerical increase in egg production | Effect on egg production [16, 18]: not observed to affect egg production
